According to ChEMBL document CHEMBL5500372, “Novel natural osthole-inspired amphiphiles as membrane targeting antibacterials against methicillin-resistant Staphylococcus aureus (MRSA)” (Eur J Med Chem, 2024):
Active and inactive are the calls of the source. No cut-off for these calls is given here.

Columns and labels:
Staphylococcus aureus [1] = assay: Antibacterial activity against methicillin-resistant Staphylococcus aureus clinical isolate 23 measured after 18 hrs by CLSI based broth microdilution method; format: functional
Staphylococcus aureus [2] = assay: Antibacterial activity against methicillin-resistant Staphylococcus aureus clinical isolate 16 measured after 18 hrs by CLSI based broth microdilution method; format: functional
Staphylococcus aureus [3] = assay: Antibacterial activity against methicillin-resistant Staphylococcus aureus clinical isolate 22 measured after 18 hrs by CLSI based broth microdilution method; format: functional
Staphylococcus aureus [4] = assay: Antibacterial activity against methicillin-resistant Staphylococcus aureus clinical isolate 14 measured after 18 hrs by CLSI based broth microdilution method; format: functional
Staphylococcus aureus [5] = assay: Bactericidal activity against Staphylococcus aureus ATCC 29213 assessed as eradication of bacteria at 8 times MIC measured after 4 hrs by time-kill assay relative to control; format: functional
Cell membrane [6] = assay: Induction of cell membrane disruption in methicillin-resistant Staphylococcus aureus clinical isolate 16 assessed as intact cells (Q3 region) at 32 ug/ml measured after 2 hrs by SYTO-9 and PI staining based flow cytometry analysis (reference value: 96.0%); format: cell membranes; details: dose 32.0 µg/ml
Cell membrane [7] = assay: Induction of cell membrane disruption in methicillin-resistant Staphylococcus aureus clinical isolate 16 assessed as dead cells (Q1 region) at 4 ug/ml measured after 2 hrs by SYTO-9 and PI staining based flow cytometry analysis (reference value: 0%); format: cell membranes; details: dose 4.0 µg/ml
Cell membrane [8] = assay: Induction of cell membrane disruption in methicillin-resistant Staphylococcus aureus clinical isolate 16 assessed as dead cells (Q1 region) at 16 ug/ml measured after 2 hrs by SYTO-9 and PI staining based flow cytometry analysis (reference value: 0%); format: cell membranes; details: dose 16.0 µg/ml
Cell membrane [9] = assay: Induction of cell membrane disruption in methicillin-resistant Staphylococcus aureus clinical isolate 16 assessed as dead cells (Q1 region) at 32 ug/ml measured after 2 hrs by SYTO-9 and PI staining based flow cytometry analysis (reference value: 0%); format: cell membranes; details: dose 32.0 µg/ml
Staphylococcus aureus [10] = assay: Antibacterial activity against methicillin-resistant Staphylococcus aureus clinical isolate 16 measured after 18 hrs in presence of phosphatidylglycerol by checkerboard broth dilution method; format: functional
Staphylococcus aureus [11] = assay: Antibacterial activity against methicillin-resistant Staphylococcus aureus clinical isolate 16 measured after 18 hrs in presence of peptidoglycan by checkerboard broth dilution method; format: functional, organism-based
Cell membrane [12] = assay: Disruption of cell membrane in methicillin-resistant Staphylococcus aureus clinical isolate 16 assessed as fold increase in intracellular ROS level at 64 ug/ml incubated for 50 mins by DCFH-DA staining based fluorescence assay; format: cell membranes; details: dose 64.0 µg/ml
L02 = assay: Cytotoxicity in human L02 cells measured after 24 hrs by CCK-8 method; format: toxicity, cell-based; details: l02, 24 h
[13] = Toxicity in female KM mouse assessed as effect on back skin at 20 mg/kg, sc measured after 24 hrs by H and E staining based analysis; format: organism-based; details: in vivo
[14] = Toxicity in female KM mouse assessed as effect on heart at 20 mg/kg, sc measured after 24 hrs by H and E staining based analysis; format: organism-based; details: in vivo
[15] = Toxicity in female KM mouse assessed as effect on histopathological abnormalities in back skin at 20 mg/kg, sc measured after 24 hrs by H and E staining based analysis; format: organism-based; details: in vivo
[16] = Toxicity in female KM mouse assessed as effect on histopathological abnormalities in spleen at 20 mg/kg, sc measured after 24 hrs by H and E staining based analysis; format: organism-based; details: in vivo
Staphylococcus aureus [17] = assay: Antibacterial activity against methicillin-resistant Staphylococcus aureus clinical isolate 16 infected in female KM mouse skin abscess model assessed as smooth skin on back at 10 mg/kg, sc measured after 24 hrs; format: functional, organism-based
Staphylococcus aureus [18] = assay: Antibacterial activity against methicillin-resistant Staphylococcus aureus clinical isolate 16 infected in female KM mouse skin abscess model assessed as reduction in infiltration of inflammatory cells in subcutaneous tissue at 10 mg/kg, sc measured after 24 hrs by H and E staining based analysis; format: functional, organism-based
Staphylococcus aureus [19] = assay: Antibacterial activity against methicillin-resistant Staphylococcus aureus clinical isolate 16 infected in female KM mouse skin abscess model assessed as reduction in bacterial load at 10 mg/kg, sc measured after 24 hrs relative to control; format: functional; design: scale not given: the % may be the effect or the level left
Staphylococcus aureus [20] = assay: Antibacterial activity against methicillin-resistant Staphylococcus aureus clinical isolate 16 infected in female KM mouse skin abscess model assessed as reduction in bacterial load at 5 mg/kg, sc measured after 24 hrs relative to control; format: functional; design: scale not given: the % may be the effect or the level left
Staphylococcus aureus [21] = assay: Antibacterial activity against methicillin-resistant Staphylococcus aureus clinical isolate 16 infected in female KM mouse skin abscess model assessed as log reduction in bacterial load at 10 mg/kg, sc measured after 24 hrs (reference value: 8.508 log10CFU/g); format: functional
[22] = Toxicity in female KM mouse skin abscess model infected with methicillin-resistant Staphylococcus aureus clinical isolate 16 assessed as effect on liver at 5 to 10 mg/kg, sc measured after 24 hrs by H and E staining based analysis; format: organism-based; details: in vivo, dose 5-10 mg/kg
[23] = Toxicity in female KM mouse skin abscess model infected with methicillin-resistant Staphylococcus aureus clinical isolate 16 assessed as effect on lung at 5 to 10 mg/kg, sc measured after 24 hrs by H and E staining based analysis; format: organism-based; details: in vivo, dose 5-10 mg/kg
[24] = Toxicity in female KM mouse skin abscess model infected with methicillin-resistant Staphylococcus aureus clinical isolate 16 assessed as histological abnormalities in spleen at 5 to 10 mg/kg, sc measured after 24 hrs by H and E staining based analysis; format: organism-based; details: in vivo, dose 5-10 mg/kg

## CCCCCCNC(=O)C[N+](C)(C)CCCCCOc1ccc2ccc(=O)oc2c1CC=C(C)C.[Br-]
Staphylococcus aureus [1]
  MIC: 2 µg/mL
Staphylococcus aureus [2]
  MIC: 1 µg/mL
Staphylococcus aureus [3]
  MIC: 1 µg/mL
Staphylococcus aureus [4]
  MIC: 1 µg/mL
Staphylococcus aureus [5]
  Activity: 100%
Cell membrane [6]
  Activity: 0.05%
Cell membrane [7]
  Activity: 0.12%
Cell membrane [8]
  Activity: 0.68%
Cell membrane [9]
  Activity: 61.7%
Staphylococcus aureus [10]
  MIC: 64 µg/mL
Staphylococcus aureus [11]
  Activity: Active
Cell membrane [12]
  fold change (FC): 7
L02
  Activity: Non-Toxic
[13]
  Activity: Non-Toxic
[14]
  Activity: Non-Toxic
[15]
  Activity: Non-Toxic
[16]
  Activity: Non-Toxic
Staphylococcus aureus [17]
  Activity: Active
Staphylococcus aureus [18]
  Activity: Active
Staphylococcus aureus [19]
  Activity: 99.998%
Staphylococcus aureus [20]
  Activity: 99.86%
Staphylococcus aureus [21]
  Activity: 4.458 log10CFU/g
[22]
  Activity: Non-Toxic
[23]
  Activity: Non-Toxic
[24]
  Activity: Non-Toxic
